From paper PMC12040169 (PLOS Biology, 2025)

Experiment: in vitro
Details: human, hela cells, % viability

| SMILES | viability at 28.5 h, 10 µM |
| --- | --- |
| Cn1ccnc1Sc1ncccc1C(F)(F)F [CBK093759] | 91.2% |
| COc1ccc(Sc2ncccc2C(F)(F)F)cc1OC [CBK093760] | 100% |
| Nc1ccccc1Sc1cc(C(F)(F)F)ccn1 [CBK093761] | 91.4% |
| COc1ccc(Sc2cccc(C(F)(F)F)n2)cc1OC [CBK093769] | 94% |
| COc1ccc(Sc2nccc(C(F)(F)F)n2)cc1OC [CBK093772] | 90.4% |
| Cc1nnc(Sc2nc3ccccc3nc2C(F)(F)F)s1 [CBK093774] | 94.8% |
| Cc1csc(Sc2nc3ccccc3nc2C(F)(F)F)n1 [CBK093775] | 94.9% |
| Nc1ccccc1Sc1nc2ccccc2nc1C(F)(F)F [CBK093776] | 96.1% |
| FC(F)(F)c1nc2ccccc2nc1Sc1ccccn1 [CBK093781] | 89% |
| FC(F)(F)c1ccnc(Sc2ccccn2)n1 [CBK093786] | 99.3% |
| COCc1nnc(Sc2nccc(C(F)(F)F)n2)s1 [CBK093790] | 99.5% |
| COc1ccc(Sc2nc3cc(Cl)c(Cl)cc3nc2NC(C)C)cc1OC [CBK093792] | 103% |
| FC(F)(F)c1ccnc(Sc2ccncc2)c1 [CBK093793] | 92.3% |
| Nc1nnc(Sc2nc3ccccc3nc2C(F)(F)F)s1 [CBK093795] | 94.6% |
| Cn1ccnc1Sc1cc(C(F)(F)F)ccn1 [CBK093798] | 80.5% |
| Oc1cccc(Sc2nccc(C(F)(F)F)n2)c1 [CBK093801] | 96.6% |
| FC(F)(F)c1ccnc(Sc2nc[nH]n2)n1 [CBK093806] | 93.1% |
| COc1ccc(-c2ccc(OC3CCNCC3)cc2)c(OC)c1 [CBK093816T] | 91.2% |
| Cc1ccc2oc(-c3ccc(O)cc3)nc2c1 [CBK093878] | 96.2% |
| S=c1[nH]cnc2scc(-c3ccc(Cl)cc3)c12 [CBK094069] | 76.5% |
| Cc1c(C#N)c2ccc(O)c(CN(C)C)c2n1-c1ccccc1 [CBK094247C] | 98.2% |
| Cc1ccccc1/N=C1/NC(=O)/C(=C/c2ccc([N+](=O)[O-])o2)S1 [CBK094584] | 96.6% |
| CCOc1ccc(-c2csc(NC(=O)c3cccnc3)n2)cc1 [CBK094747] | 89.2% |
| O=C1CC(c2ccc(Br)cc2)Nc2ccc3ccccc3c21 (stereo not shown) [CBK094798] | 93.4% |
| CC(C)(C)c1ccc(-n2cc(-c3ccc(F)cc3F)nn2)cc1 [CBK094818] | 85.4% |

| SMILES | viability at 28.5 h, 10 µM |
| --- | --- |
| Cc1ccc(-c2csc(NC(=O)c3ccc(F)cc3)n2)cc1 [CBK095107] | 85.2% |
| O=C1S/C(=C\c2ccc(F)c(Br)c2)C(=O)N1c1cccc(Cl)c1 [CBK095450] | 87.7% |
| CC(C)(C)c1ccc(S(=O)(=O)N2CCSC2)cc1 [CBK095672] | 101% |
| O=C(Nc1nnc(C(F)(F)F)s1)c1cc(Cl)ccc1Cl [CBK095734] | 86.3% |
| COc1ccc(CCNC(=O)CSc2nc(N)c3c4c(sc3n2)CCCC4)cc1 [CBK095784] | 94.2% |
| CC(=O)Nc1ccc(N2C(=O)CSC23C(=O)Nc2ccccc23)cc1 (stereo not shown) [CBK095916] | 91.7% |
| CCN(CC)c1ccc(NC(=O)COc2ccccc2)cc1 [CBK096048] | 91.9% |
| CCOC(=O)C1CCN(S(=O)(=O)c2ccc(Cl)s2)CC1 [CBK096109] | 94.9% |
| C=CCn1c(S)nnc1-c1ccc(Br)cc1 [CBK096756] | 77.3% |
| O=C(O)c1ccccc1SC(C[N+](=O)[O-])c1ccccc1Cl (stereo not shown) [CBK097071] | 95.6% |
| CCOC(=O)c1sc2nc(C)cc(C)c2c1N [CBK097355] | 82.9% |
| COc1ccc(S(=O)(=O)N2CCSC2)cc1C [CBK097882] | 106% |
| Nc1ncnc2sc3c(c12)CCC3 [CBK097952] | 89.7% |
| CCOc1ccc(/C=C2/NC(=O)NC2=O)cc1Br [CBK098031] | 91.6% |
| NC(=O)c1ccc(-c2ccc(/C=C3/C(=O)NN(c4ccc(F)cc4)C3=O)o2)cc1 [CBK098345] | 89.9% |
| Cc1ccc(N2CCN(S(=O)(=O)c3ccc(I)cc3)CC2)c(C)c1 [CBK098562] | 91.7% |
| NC(=O)c1cnn(-c2cc(Oc3ccccc3)ncn2)c1N [CBK098664] | 105% |
| CSc1ccccc1-n1nnnc1SCc1ccccc1 [CBK099033] | 83% |
| CCOc1ccccc1C(=O)Nc1ccc(O)cc1 [CBK099037] | 91.8% |
| COC(=O)c1ccc(NC(=S)NC(=O)c2cncc(Br)c2)cc1 [CBK099257] | 87.9% |
| CCCCOc1ccc(S(=O)(=O)N2CCN(c3cccc(C)c3C)CC2)cc1 [CBK099293] | 114% |
| Cc1ccc(Oc2cc(-n3nc(C)c(C(N)=O)c3N)ncn2)cc1 [CBK099753] | 95.7% |
| COc1ccc(OC)c(NS(=O)(=O)c2ccccc2)c1 [CBK099989] | 73% |
| COc1cc(/C=C2/SC(=O)NC2=O)cc(I)c1O [CBK100075] | 92.1% |
